# Reference: a melting point compilation (Tetko et al.; mined from patent text by program, amines drawn as free bases though some values may be those of a salt)
row,Compound,melting point [°C]
1,COC=C(C(=O)OC)n1ccc2ccc(-c3csc(-c4ccc(C)cc4)n3)cc21,145 to 146
2,CC12C=CC(=O)C(N)=C1CCC1C2CCC2(C)C(=O)CCC12 (stereo unspecified),162 to 169
3,Cc1c(-c2ccccc2)oc2c(S)cccc2c1=O,115 to 118
4,O=C(O)CCC1CC(c2ccccc2)CCC1O (stereo unspecified),154 to 155
5,O=C1c2ccccc2C(=O)N1Cc1cc(F)ccc1[N+](=O)[O-],198 to 200
6,COc1cccc(OC2CN([C@H]3CC[C@@H](c4c[nH]c5ccc(F)cc54)CC3)C2)c1,125 to 127
7,CN(C)C(=O)Nc1ccc(Oc2cccc(C(F)(F)F)c2)c(Cl)c1,166
8,COCCOc1ccc(-c2sc(N)c(C(=O)c3ccc(Cl)cc3)c2CN(C2CCCCC2)C2CCCCC2)cc1,162 to 164
9,O=c1[nH]c2ccsc2[nH]c1=O,> 340
10,O=C1NC(=O)C2(CCS(=O)(=O)c3ccccc32)N1 (stereo unspecified),280 to 281
11,Cc1sc2c(Br)c3ccccc3c(-c3cc(Br)c(O[C@@H](CCc4ccccc4)C(=O)O)c(Br)c3)c2c1C,176 to 177
12,O=C1OC(=Cc2ccccc2)c2ccc(-c3ccccc3)cc21,187
13,CC(C)CCCC(C)C1CCC2C3CC=C4CC(NCCCNC(=O)CCCCCNc5ccc([N+](=O)[O-])c6nonc56)CCC4(C)C3CCC12C (stereo unspecified),78 to 80
14,CC(O)C(=O)c1ccc(F)cc1F (stereo unspecified),49 to 51
15,CC1(Cl)C(=O)N(c2cc(Cl)cc(Cl)c2)N=C1Cl (stereo unspecified),77
16,O=C(CCC1=C(n2nc(-c3c(-c4ccccc4)nn4ccccc34)ccc2=O)CCCC1)OCc1ccccc1,111 to 113
17,COC(=O)C(CCON1C(=O)c2ccccc2C1=O)NC(=O)Cc1ccccc1 (stereo unspecified),138 to 139
18,C=CCOc1ccc(F)cc1-c1ccccc1-c1ccccc1,48 to 49
19,CC1(C2CC2)NC(=O)Nc2ccc(-c3cccc(Cl)c3)cc21 (stereo unspecified),125 to 127
20,COc1cc2c(cc1OC)C(O)C(N1CCC(N3c4ccccc4NC3C)CC1)C2 (stereo unspecified),255 to 256
21,Nc1ccc(CC(NC(=O)CCCCCCCCCCNC(=O)C(c2ccccc2)c2ccccc2)c2ccccc2)cc1 (stereo unspecified),96 to 102
22,COc1c(Cc2ccccc2)cc(S(N)(=O)=O)c2ccccc12,159 to 161
23,O=C1Nc2cccnc2N(C(=O)CCl)c2cc(F)ccc21,230
24,O=c1cc(N2CCOCC2)oc2c(-c3ccc(O)c(-c4ccccc4)c3)cccc12,243 to 247
25,COC(=O)c1cccc(CCC(=O)O)c1,81
26,CCCCn1c(=O)[nH]c(=O)c2c3n(nc21)CCN3,239 to 240

row,Compound,melting point [°C]
1,CC(=O)c1ccc2ccc3ccccc3c2n1,113 to 115
2,O=C(O)c1cc(S(=O)Cc2ccccc2)c(Cl)cc1Cl (stereo unspecified),192
3,CCC1(O)CC(=O)OCc2c1cc1n(c2=O)Cc2c-1nc1ccccc1c2C1CCCCC1 (stereo unspecified),> 250
4,N[C@@H](Cc1ccc(F)cc1)[C@H](O)c1ccc(C(F)(F)F)cc1 (racemic),130 to 131
5,COC(=O)c1cccc(OC)c1S(=O)(=O)Cl,106 to 108
6,COc1ccccc1Cc1c(N)nc(SCCCN2CCN(C(C)=O)CC2)nc1N,208 to 209
7,CSC(c1ccc(Cl)cc1)C(C(O)C(C)(C)C)n1cncn1 (stereo unspecified),58 to 60
8,CN(CC1(C)Cn2cc([N+](=O)[O-])nc2O1)C(=O)OCc1ccc(F)cc1 (stereo unspecified),169 to 170
9,Cc1nc(-c2ccc(C(F)(F)F)cc2)sc1COc1ccc(CC(=O)O)cc1Cl,126 to 127
10,N#CCNCCc1c[nH]c2ccc(Cl)cc12,80
11,Cn1cc(-c2cc3cccnc3[nH]2)c2ccc(C(=O)NCCC(N)=O)cc21,277 to 280
12,O=C(CNC(=O)c1ccc(Cl)c(Cl)c1)c1ccoc1,133 to 134
13,CCC(C)C(C(=O)O)n1sc2ccccc2c1=O (stereo unspecified),50 to 52
14,COc1ccc2[nH]c3c(c2c1)CC(N(C)C)CC3 (stereo unspecified),126 to 128
15,CC1(N)CN(c2cc3c(cc2F)c(=O)c(C(=O)O)cn3C2CC2)C1,293 to 295
16,O=C(c1ccc2c(c1)sc(=O)n2CCOc1ccc(CC(OCC(F)(F)F)C(=O)O)cc1)C1CC1 (stereo unspecified),124 to 128
17,Cc1nc2ccccc2n2cnc(-c3noc(C4CC4)n3)c12,165 to 167
18,COc1ccc(C2=NOC(C)(/C(N)=C/OC(C)=O)C2)cc1OC1CCCC1 (stereo unspecified),131
19,Cc1ccc(C(=O)OCCOc2ccc(OC(F)(F)F)cc2)cc1,76 to 77.5
20,COC(=O)c1cccc(F)c1O,94 to 95
21,CNC(=O)N1CCC(c2nn(-c3ccc(F)cc3)c3ccccc23)CC1,113 to 115
22,CS(=O)(=O)c1ccc(-c2cccn2-c2ccc(F)cc2F)cc1,122 to 125
23,CCCCc1oc2ccccc2c1C(=O)NCc1ccc2c(-c3ccc(C(C)(C)C)cc3)c(OCc3nnn[nH]3)ccc2c1,75 to 78
24,COc1cc2oc(=O)c(CCCl)c(C)c2cc1OC(C)C,125 to 127
25,Nc1ccc(OCc2cscn2)cc1,114 to 115
26,CC(C)CCCC(C)C1CC=C2C3=C(CCC21C)C1(C)CCC(C(=O)c2ccncc2)CC1CC3 (stereo unspecified),129 to 131

row,Compound,melting point [°C]
1,CCC(CC)COc1cnc(N)nc1N,173 to 174
2,CCOC(=O)C1(C(=O)OCC)CCc2cc3c(cc2C1c1cc(OC)c(O)c(OC)c1)OCO3 (stereo unspecified),147 to 148
3,COc1cc(Br)c2oc(-c3ccc(OC)c(C(F)(F)F)c3)nc2c1,183 to 185
4,CN(C(=O)c1ccc(Cl)c(Cl)c1)c1ccccc1CCC(=O)O,149 to 150
5,COc1cc(C(=O)NS(=O)(=O)c2ccccc2C)ccc1Cc1cccc2ccc(NC(=O)CC3CCCC3)cc12,248 to 249
6,CCOCc1nc2c(N)nc3c(c2n1NCCCNC(=O)N1CCOCC1)CCCC3,152 to 154
7,COc1ccccc1CC(=O)N1CCCc2ncc3ccccc3c21,108 to 111
8,COc1cc(C(C)N(O)C(N)=O)cc(OC)c1OC(C)c1ccccc1 (stereo unspecified),129 to 132
9,O=C(Nc1cccc(C(F)(F)F)c1)C12CC3CC(CC(C3)C1)C2,171 to 174
10,COc1ccc(S(N)(=O)=O)cc1C(C)O (stereo unspecified),165 to 166
11,O=C(O)c1ccc(NC(=O)c2ccc(-c3ccccc3)cc2)cc1,> 320
12,CC1CCC2(C(=O)O)CCC3(C)C(=CCC4C5(C)CC(O)C(O)C(C)(CO)C5CCC43C)C2C1C (stereo unspecified),300 to 310
13,C=CCn1c(NNC(=O)CCCl)nc2ccccc2c1=O,151 to 153
14,COC(=O)C(=COCF)c1ccccc1CBr,73 to 76
15,COc1ccc2c(c1)c(SC)c(C(N)=O)n2C,204 to 206
16,CSc1nn2c(N)cc(C)nc2c1S(=O)(=O)c1ccc(F)cc1,> 230
17,Cc1ccc(Nc2nc(-c3ccc(OC(F)(F)F)cc3)cs2)nc1,205 to 207
18,CC(=O)O[C@H]1[C@H]([C@H](Cc2ccccc2)NC(=O)OCc2ccccc2)OC(=O)N[C@H]1Cc1ccccc1,140 to 142
19,CCCCC(CC(=O)Nc1cc(C(N)=O)ccc1C(C)(C)C)c1cc(Cl)c(OCCCS(=O)(=O)CCC)cc1OC (stereo unspecified),144 to 150
20,COc1ccc2c(=O)c3[nH]cc(C(=O)O)c(=O)c3oc2c1,318 to 319
21,Oc1ccc(-c2nsnc2Cl)cc1,135 to 136
22,Cn1ncc(C(=O)N2CCC2)c1C(=O)Nc1ccc2nc(-c3ccccc3)nn2c1,235 to 236
23,CCCCCCCCCc1c(O)nc(-c2ccc(-c3ccc(CCCCC)cc3F)cc2)nc1O,51
24,O=C(CCc1ccccc1)NCCCn1ccnc1,90 to 92
25,COc1ccc(Cl)cc1-c1c(N)c(=O)[nH]c2cc(C(F)(F)F)cc(C(F)(F)F)c12,265 to 267
26,CCC(C)(C)NC(=O)NC1=CC(=O)OC1,169 to 171

row,Compound,melting point [°C]
1,COc1cc(-c2nc3ccccc3n2Cc2ccc(Cl)cc2Cl)cc(OC)c1OC,186
2,CCOC(=O)Cc1cc(CC)c(C(=O)c2ccc(Cl)cc2)n1C,73 to 75
3,O=Cc1c([N+](=O)[O-])ccc(Cl)c1[N+](=O)[O-],101 to 102
4,CN1C(=O)CC[C@]2(C)c3ccc(-c4cc(F)c([N+](=O)[O-])cc4F)cc3CC[C@@H]12,130 to 140
5,COc1ccc(CCNC2CCCc3c2ccc(=O)n3C)cc1 (stereo unspecified),97 to 99
6,COc1ccc(COC(=O)C2N(c3c(C)cccc3C)C(=N)C(C)N2c2c(C)cccc2C)cc1 (stereo unspecified),135 to 137
7,CS(=O)(=O)Nc1cc(NC(=O)CCl)c([N+](=O)[O-])cc1Oc1ccccc1,194 to 195
8,CCOc1nc2cccc(C(=O)O)c2n1Cc1ccc(-c2ccccc2)c(-c2nnn[nH]2)c1,183 to 185
9,CC(C)NCC(O)COc1ccc(OCCSCC2CC2)cc1 (stereo unspecified),86
10,CC(C)S(=O)(=O)C(C#N)=C(Nc1cc(C(F)(F)F)cc(C(F)(F)F)c1)NC1CCC1,148 to 150
11,C=Cc1cn(-c2c(Cl)cc(C(F)(F)F)cc2Cl)c2ccccc12,85 to 87
12,CCOC(=O)c1c[nH]c2cc(OC)c(OC)cc2c1=O,275 to 285
13,Nc1nc(NCCN2CCCCC2)nc(-c2cc(Cl)ccc2Cl)n1,179 to 181
14,CN1CCC2(CC1)Nc1cc(Cl)c(Cl)cc1-n1cccc12,214 to 215
15,Cc1c(CBr)oc2ccc(Cl)cc12,81 to 82
16,O=S(=O)(Nc1cccc(CCOCc2ccc(-c3ccc(Cl)c(Cl)c3)cc2F)c1)C(F)(F)F,102 to 104
17,CCc1cc(N2CCCCC2)c(S(C)(=O)=O)cc1C(=O)N=C(N)N,218 to 220
18,Cc1cc(Br)n2ccnc2c1,53 to 54
19,N#Cc1cnc2scc(Br)c2c1Br,204 to 206
20,CCC1c2[nH]c3ccccc3c2CC(C(=O)O)N1C(=S)SC (stereo unspecified),155 to 157
21,CCc1cc(Cl)c(OC)c(C(=O)N[C@H]2CCN(CCCC(=O)N3CCCC3)C[C@H]2OC)c1O (relative stereo),90.8
22,NC(=O)C(=O)c1cccc(Cl)c1Cl,213 to 214
23,CC(C)(C)OC(=O)COc1ccc(C=O)cc1,56 to 57
